The values that follow come from patent publication US20240190855A1 (Relay Therapeutics, Inc., priority 2021, published 2024).

Where only a bound is given, the exact number is not on record here.

The experiment has as its target T1, CDK2/Cyclin E complex (Homo sapiens, UniProt P24941).
T1 construct: purchased Eurofins 14-475
Put plainly: CDK2/Cyclin E fluorescence-based microfluidic mobility shift assay (CDK2 Biochemical Caliper Assay). Particulars: read-out: Biochemical CDK2/CyclinE Caliper IC50. The procedure: Compounds of the present disclosure were tested in a CDK2/Cyclin E fluorescence-based microfluidic mobility shift assay (PerkinElmer).
The active wild type CDK2/Cyclin E complex was purchased from Eurofins (14-475). Compound stocks were prepared in DMSO and were serially diluted into 11 concentrations by 3-fold dilution. […] Compounds were incubated in the presence of CDK2/Cyclin E complex and ATP for 30 minutes at room temperature. Catalytic reaction was initiated with the addition of 5 uL of a 4× peptide solution containing 6 uM fluorescently label substrate peptide, FL Peptide 18 (aa sequence 5-FAM-QSPKKG, PerkinElmer, 760362) in 1× reaction buffer.
The final reaction components were 0.1 nM CDK2/Cyclin E, 2000 uM ATP and 1.5 uM FL Peptide 18 and 1% DMSO. Reactions were incubated RT for 20 hr and terminated with 75 uL of a stopping solution containing 0.5 M EDTA. Samples were analyzed using a LabChip EZ reader (PerkinElmer).
For the compound `CC(C)NC(=O)O[C@@H]1CC[C@H](c2cc(Nc3ncnc4ncccc34)n[nH]2)C1` (single isomer, unassigned) [Example 400], the IC50 was at most 100 nM.

On to `CC(C)NC(=O)O[C@H]1CC[C@@H](c2cc(Nc3ncnc4ncccc34)n[nH]2)C1` (single isomer, unassigned) [Example 401], for which the IC50 was at most 100 nM.

Take `Cc1cnn(-c2ccnc(Nc3cc([C@H]4CC[C@@H](OC(=O)NC(C)C)C4)[nH]n3)c2)c1` (single isomer, unassigned) [Example 402]: the IC50 lay within 100 to 250 nM.

For the compound `Cc1cnn(-c2ccnc(Nc3cc([C@@H]4CC[C@H](OC(=O)NC(C)C)C4)[nH]n3)c2)c1` (single isomer, unassigned) [Example 403], the IC50 lay in the range of 100 to 250 nM.

With `c1cc2ncsc2c(Nc2cc([C@H]3CC[C@@H](Oc4nscc4C4CC4)C3)[nH]n2)n1` (single isomer, unassigned) [Example 404], the IC50 was at most 100 nM.

In the case of `c1cc2ncsc2c(Nc2cc([C@@H]3CC[C@H](Oc4nscc4C4CC4)C3)[nH]n2)n1` (single isomer, unassigned) [Example 405], the IC50 was at most 100 nM.

For `Cc1cc(CC(=O)Nc2cc([C@@H]3CC[C@H](Cc4cn[nH]c4C(C)C)C3)[nH]n2)on1` (single isomer, unassigned) [Example 408], the IC50 is 250 to 1000 nM.

Turning to `Cc1cc(CC(=O)Nc2cc([C@H]3CC[C@@H](Cc4cn[nH]c4C(C)C)C3)[nH]n2)on1` (single isomer, unassigned) [Example 409], the IC50 was 100 to 250 nM.

As to `COCc1cc(C(=O)Nc2cc([C@H]3CC[C@@H](Oc4nnccc4C(C)C)C3)[nH]n2)n(C)n1` (single isomer, unassigned) [Example 410], the IC50 is at most 100 nM.

`COCc1cc(C(=O)Nc2cc([C@@H]3CC[C@H](Oc4nnccc4C(C)C)C3)[nH]n2)n(C)n1` (single isomer, unassigned) [Example 411]: the IC50 was at most 100 nM.

Regarding `COCc1cc(C(=O)Nc2cc([C@@H]3CC[C@H](Oc4nscc4C4CC4)C3)[nH]n2)n(C)n1` (single isomer, unassigned) [Example 413], the IC50 was at most 100 nM.

With `COCc1cc(C(=O)Nc2cc([C@H]3CC[C@@H](Oc4nscc4C4CC4)C3)[nH]n2)n(C)n1` (single isomer, unassigned) [Example 414], the IC50 was at most 100 nM.

As to `COCc1cc(C(=O)Nc2cc([C@H]3CC[C@@H](Oc4ccc(C(C)C)nn4)C3)[nH]n2)n(C)n1` (single isomer, unassigned) [Example 415], the IC50 is 250 to 1000 nM.

Take `CC(C)NC(=O)O[C@@H]1CC[C@H](c2cc(N)n[nH]2)C1` (single isomer, unassigned) [Example 417]: the IC50 fell in the range of 1000 to 100000 nM.

As to `CC(C)NC(=O)O[C@H]1CC[C@@H](c2cc(N)n[nH]2)C1` (single isomer, unassigned) [Example 418], the IC50 lay within 1000 to 100000 nM.

Consider `COCc1cc(C(=O)Nc2cc([C@H]3CC[C@@](C)(CC(=O)NC(C)C)C3)[nH]n2)n(C)n1` (single isomer, unassigned) [Example 419], for which the IC50 is 1000 to 100000 nM.

On to `COCc1cc(C(=O)Nc2cc([C@@H]3CC[C@](C)(CC(=O)NC(C)C)C3)[nH]n2)n(C)n1` (single isomer, unassigned) [Example 420], for which the IC50 was in the range of 1000 to 100000 nM.

As to `CC(=O)Nc1cc([C@H]2CC[C@@H](Oc3nscc3C3CC3)C2)[nH]n1` (single isomer, unassigned) [Example 421], the IC50 is at most 100 nM.

For `CC(=O)Nc1cc([C@@H]2CC[C@H](Oc3nscc3C3CC3)C2)[nH]n1` (single isomer, unassigned) [Example 422], the IC50 is at most 100 nM.

For `CC(=O)Nc1nc2ccnc(Nc3cc([C@H]4CC[C@@H](OC(=O)NC(C)C)C4)[nH]n3)c2s1` (single isomer, unassigned) [Example 423], the IC50 was at most 100 nM.

As for `CC(=O)Nc1nc2ccnc(Nc3cc(C4CC[C@H](OC(=O)NC(C)C)C4)[nH]n3)c2s1` (single isomer, unassigned) [Example 424], the IC50 was at most 100 nM.
